US7351857B2, “Methods of using substituted tetralins and indanes” (Janssen Pharmaceutica N.V., priority 2002, dated 2008)

What was measured:
PPARγ = biological target: T1, PPARγ (Homo sapiens, UniProt P37231); experiment: aP2 assay for PPAR gamma agonists (bDNA aP2 mRNA in preadipocytes); assay type: cell-based; details: unbracketed values; PPARγ standard FI = 70.3
T1 construct: Following the challenge of the preadipocytes, cells may be lysed with lysis buffer; endogenous in cells; host or cells: preadipocytes
T1 sequence (P37231 1-505): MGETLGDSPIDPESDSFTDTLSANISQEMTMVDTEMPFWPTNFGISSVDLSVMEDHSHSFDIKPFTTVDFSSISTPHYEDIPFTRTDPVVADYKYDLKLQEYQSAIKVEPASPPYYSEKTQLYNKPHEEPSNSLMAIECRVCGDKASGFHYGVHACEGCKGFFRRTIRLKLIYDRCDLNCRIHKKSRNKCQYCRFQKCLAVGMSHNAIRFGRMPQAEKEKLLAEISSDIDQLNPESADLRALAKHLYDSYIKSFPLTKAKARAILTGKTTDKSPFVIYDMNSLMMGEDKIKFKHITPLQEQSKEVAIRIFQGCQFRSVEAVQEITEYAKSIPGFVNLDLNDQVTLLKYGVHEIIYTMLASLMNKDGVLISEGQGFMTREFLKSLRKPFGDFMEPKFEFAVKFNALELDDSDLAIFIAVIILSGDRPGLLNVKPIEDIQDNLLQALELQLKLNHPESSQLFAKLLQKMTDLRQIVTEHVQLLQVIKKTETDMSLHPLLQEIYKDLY
Experimental: The procedure is described in detail in Burris et al., Molecular Endocrinology, 1999, 13:410, which is hereby incorporated by reference in its entirety, and aP2 assay results of agonist intrinsic activity may be presented as fold increase over vehicle in induction of aP2 mRNA production.
Twenty-four hours after the initial seeding of the 96-well plates by hand (around 20,000/well), the differentiation assay may be initiated. Medium may be removed and replaced with 150 μl of differentiation medium containing vehicle (DMSO) or test compounds. Cells may be returned to incubator for 24 hours culture. At the termination of the challenge, medium may be removed and 100 ul of lysis buffer may be added to initiate the bDNA aP2 mRNA assay. The branched DNA assay may be performed according to the manufacturer's protocol (Bayer Diagnostics; Emeryville, Calif.). Result may be expressed as the fold increase of aP2 mRNA production activated over vehicle controls. EC50's and Emax may be determined by non-linear regression with a sigmoidal fit curve.
Following the challenge of the preadipocytes, cells may be lysed with lysis buffer (Bayer Diagnostics) containing the aP2 oligonucleotides. After a 15 minute incubation at 53° C. or 30 minutes at 37° C. incubator, 70 ul of the lysis buffer from each well may be added to a corresponding capture well (preincubated with 70 ul of blocking buffer (Bayer Diagnostics)). The capture plate may be incubated overnight at 53° C. in a plate incubator (Bayer Diagnostics). After this incubation, the bDNA and labeled probes may be annealed as directed by the manufacturer. Following a 30-minute incubation with the luminescent alkaline phosphatase substrate, dioxitane, the luminescence may be quantitated in a Dynex MLX microtiter plate luminometer. Oligonucleotide probes designed to anneal to the aP2 mRNA and function in the bDNA mRNA detection system are designed with ProbeDesigner software (Bayer Diagnostics). This software package analyzes a target sequence of interest with a series of algorithms in order to determine which regions of the sequence can perform as locations for capture, label, or spacer probe annealing. The sequences of the oligonucleotides are as follows: […]

PPARδ = biological target: T2, PPARδ (Homo sapiens, UniProt Q03181); experiment: Transfection assay for PPARδ receptors (PPAR-Gal4 / Gal4-luciferase reporter in HEK293 cells); assay type: cell-based; details: unbracketed values, PPARδ standard FI = 36.1
T2 sequence (Q03181 171-441 limits assumed): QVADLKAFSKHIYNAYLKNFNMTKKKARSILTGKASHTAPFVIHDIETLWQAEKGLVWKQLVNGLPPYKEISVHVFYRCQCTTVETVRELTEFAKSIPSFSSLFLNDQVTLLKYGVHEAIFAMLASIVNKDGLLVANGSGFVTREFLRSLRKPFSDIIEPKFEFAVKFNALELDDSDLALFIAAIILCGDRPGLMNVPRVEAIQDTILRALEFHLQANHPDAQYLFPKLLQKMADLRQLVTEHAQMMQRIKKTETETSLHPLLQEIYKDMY
Experimental: HEK293 cells were grown in DMEM/F-12 Media supplemented with 10% FBS and glutamine (GIBCOBRL). The cells were co-transfected with DNA for PPAR-Gal4 receptor and Gal4-Luciferase Reporter using the DMRIE-C Reagent. On the following day, the DNA-containing medium were replaced with 5% Charcoal treated FBS growth medium. After six hours, cells were seeded in 96 well plate and incubated at 37° C. in CO2 incubator overnight. Cells were challenged by test compounds and incubated for 24 hours at 37° C. in 5% CO2 incubator. Luciferase activity was assayed using the Steady-Glo Luciferase Assay Kit from Promega. DMRIE-C Reagent was purchased from GIBCO Cat. No. 10459-014. OPTI-MEM I Reduced Serum Medium was purchased from GIBCO Cat. No. 31985. Steady-Glo Luciferase Assay Kit was obtained from Promega Part# E254B.

ob/ob mice = experiment: 11 day oral dosing in female ob/ob mice: serum TG, glucose, insulin; assay type: in vivo; details: 1.0 mpk, oral once daily 11 days, % change vs vehicle
Experimental: (Female ob/ob mice (C57 BU6J-Lep^ob, Jackson Labs, Bar Harbor, Me.), 7 weeks of age, were housed two per cage in solid-bottomed shoe box cages. Room temperature was maintained at 68-72° F. and humidity at 50-65%. Room lighting was on a 12-hour light/12-hour dark cycle. Mice were fed a certified NIH Rat and Mouse diet #5K50 (P M I Nutrition Int'l, St. Louis, Mo., via W. F. Fisher and Son, Inc., Bound Brook, N.J.). Food and water were supplied ad libitum.
The compound was prepared as suspensions in 0.5% hydroxypropyl-methylcellulose (Dow Chemical, Midland, Mich.). The dosing volume was 10 mL/kg of body weight. Female ob/ob diabetic mice (8/group) were orally gavaged once daily for 11 days with either 0.5% methylcellulose in dH2O (vehicle) or PPAR agonist at 0.003, 0.01, 0.03, 0.1, 0.3, 1 mg/kg/day. Body weight was measured in the mornings on Day 1, prior to dosing, and on Day 12 before bleeding. 18 hours after the final dose for each group, the mice were anesthetized with CO2/O2 (70%:30%) and bled by retro-orbital sinus puncture into micro-tubes containing clog activator and then put in ice. The serum samples were prepared by centrifugation. Serum glucose and triglycerides were determined by using COBAS Mira Plus blood chemistry analyzer (Roche Diagnostics, N.J.). Serum insulin and free fatty acids were measured by using ALPCO insulin ELISA kit and Wako NEFA kit, respectively. […]

Structure (SMILES) | PPARγ FI (fold induction) (PPARγ) | PPARδ FI (fold induction) (PPARδ) | Δ Plasma Glucose (ob/ob mice) [%] | Δ Plasma Insulin (ob/ob mice) [%]
CCCCCCN(C(=O)Nc1ccc(OC(F)(F)F)cc1)C1Cc2ccc(SC(C)(C)C(=O)O)cc2C1 (centres unmarked) [Example 14, 2-Methyl-2-{2-[1-hexyl-3-(4-trifluoromethoxyphenyl)ureido]indan-5-ylsulfanyl}propionic acid] | 0.3 | 1.3 | – | –
CCCCCN(C(=O)Nc1ccc(SC(F)(F)F)cc1)C1Cc2ccc(SC(C)(C)C(=O)O)cc2C1 (centres unmarked) [Example 5, 2-Methyl-2-{2-[1-pentyl-3-(4-trifluoromethylsulfanylphenyl)ureido]indan-5-ylsulfanyl}propionic acid] | 4.0 | 2.5 | – | –
CCN(C(=O)Nc1ccc(OC(F)(F)F)cc1)C1Cc2ccc(SC(C)(C)C(=O)O)cc2C1 (centres unmarked) [Example 2, 2-{2-[1-Ethyl-3-(4-trifluoromethoxyphenyl)ureido]indan-5-ylsulfanyl}-2-methylpropionic acid] | 0.24 | 4.2 | – | –
CCN(C(=O)Nc1ccc(OC(F)(F)F)cc1)C1CCc2cc(SC(C)(C)C(=O)O)c(F)cc2C1 (centres unmarked) [Example 50, 2-{6-[1-Ethyl-3-(4-trifluoromethoxyphenyl)ureido]-3-fluoro-5,6,7,8-tetrahydronaphthalen-2-ylsulfanyl}-2-methylpropionic acid] | – | – | −74 | −93
CCCCCN(C(=O)Nc1ccc(OC(F)(F)F)cc1)C1Cc2ccc(SC(C)(C)C(=O)O)cc2C1 (centres unmarked) [Example 8, 2-Methyl-2-{2-[1-pentyl-3-(4-trifluoromethoxyphenyl)ureido]indan-5-ylsulfanyl}-2-methylpropionic acid] | 1.9 | 5.9 | – | –
CCN(C(=O)Nc1ccc(C(C)C)cc1)C1Cc2ccc(SC(C)(C)C(=O)O)cc2C1 (centres unmarked) [Example 6, 2-{2-[1-Ethyl-3-(4-isopropylphenyl)ureido]indan-5-ylsulfanyl}-2-methylpropionic acid] | 1.9 | 3.6 | – | –
CCCCCN(C(=O)Nc1ccc(N(C)C)cc1)C1Cc2ccc(SC(C)(C)C(=O)O)cc2C1 (centres unmarked) [Example 9, 2-{2-[3-(4-Dimethylaminophenyl)-1-pentylureido]indan-5-ylsulfanyl}-2-methylpropionic acid] | 2.9 | 1.0 | – | –
